Laboratory results reported in patent publication US10814018B2, “Isotopically labeled deoxy-glucose and derivatives thereof, compositions comprising them and uses thereof” (HADASIT MEDICAL RESEARCH SERVICE & DEVELOPMENT LTD., priority 2010, dated 2020).

What was measured:
[1] = rats, intravenous, cited from earlier work
[2] = T1 of glucose 13C nuclei by inversion recovery pulse sequence (Varian NMR spectrometers, 7 T and 11.8 T); assay type: physicochemical
Method: The effect of glucose concentration on the T1 of its carbon positions was investigated at 7 T (FIG. 1A) and at 11.8 T (FIG. 1B) using Varian NMR spectrometers (The Netherlands). [U-^13C6, ^2H7]glucose was obtained from Cambridge Isotopes Laboratories (Andover, Mass., USA). The T1 of [U-^13C6, ^2H7]glucose ^13C's was measured using the inversion recovery pulse sequence. […] The mean difference between the T1s of the two concentrations was 6.9 s (P=2*10^−6, paired t-test) at 7 T. The mean difference in T1 at 11.8 T was 4.5 s (P=4*10^−5, paired t-test). The labels C1α and C1β (FIG. 1-3) mark the two signals of the glucose carbon at position 1 in the α and β anomers. The labels Ciα and Ciβ (FIG. 1-3) mark the two signals of the glucose carbon at position i in the α and β anomers.
The effect of the magnetic field strength on the T1 of glucose carbons was investigated at 7 T (FIG. 2, solid gray columns) and at 11.8 T (FIG. 2, diagonal pattern columns). [U-^13C6, ^2H7]glucose T1 at 400 mM was measured using the inversion recovery pulse sequence in the two spectrometers. […] The mean difference in T1 between the two fields was 2 s (P=6*10^−4, paired t-test).
To increase the signal of hyperpolarized deoxy-glucose and hyperpolarized glucose, stable isotope labeling by carbon-13 in all of the carbon positions was used. The effect of direct carbon-13 to carbon-13 bonding on the individual carbon-13 T1s was investigated to study the effect of these added dipolar interactions on T1 relaxation times. To this end, two compounds were investigated (both from Cambridge Isotopes Laboratories): [U-^13C6, ^2H7]glucose (FIG. 3, solid gray columns) and [^2H7]glucose (FIG. 3, diagonal pattern columns), both at 400 mM concentration. The T1 at 11.8 T was measured using the inversion recovery pulse sequence. While both compounds are fully deuterated, in the [U-^13C6, ^2H7]glucose molecule the carbon positions are 99% occupied by ^13C nuclei. In the [^2H7]glucose molecule, only ca. 1.1% of each of the carbon positions are occupied by ^13C nuclei (due to the natural abundance distribution of ^13C). The chance for having two directly bonded ^13C nuclei in this molecule is therefore 0.01% (negligible). Therefore this measurement was indicative of the T1 of singly ^13C labeled glucose. […] Therefore, it was deducted that direct bonding of additional ^13C nuclei led to a decrease in glucose ^13C T1s, due to the additional dipolar interactions.

[3] = Hyperpolarized glucose carbon-13 images in vivo at 3 T after tail vein bolus; parameters: species or system rats
Method: Hyperpolarized glucose images were recorded at 3 T in vivo. As depicted in FIG. 5, hyperpolarized [U-^13C6, ^2H7]glucose provided a high signal on carbon-13 images recorded in vivo. Normal rats were anesthetized, and hyperpolarized [U-^13C6, ^2H7]glucose was injected through the tail vein in a bolus of 12 s total duration. Images were recorded at 8, 12, and 20 s from the onset of the bolus injection (i.e. during and after the bolus). […] Arterial hyperpolarized media flow at this time is not likely, as the signal in the kidneys is not yet visible. […] The signal from the injected hyperpolarized media is extremely high with no background signal. At 12 s (FIG. 5B), at the end of the bolus injection, signal intensity in the main vasculature and the heart is still high, with substantial intensity observed in the kidneys (see indicating arrows). At 20 s from bolus initiation (FIG. 5C), signal from the heart is the most intense signal in the image, about 40% higher than signal in the vasculature and 20% higher than signal in the kidneys. Still, signal in the kidneys is clearly observed, as well as signal in other tissues such as the liver (see indicating arrows and color change). The hyperpolarized glucose signal observed in the heart at 20 s from bolus start is more intense than signal in the vasculature and the kidneys. […] In the anaesthetized rat, the only tissue that is expected to actively take up glucose is the myocardium, because under anesthesia it is the only active muscle. […] It is noted that heart anatomy cannot be discerned from these hyperpolarized images since the imaging time (1 s) averaged several heart beats (approximately 6 beats). However, glucose uptake by the myocardium can be determined at short time frames of the order of 20 s using gradient de-phasing of intravoxel moving spins. Using this methodology, hyperpolarized glucose or deoxyglucose signal from capillaries are diminished, while the signal of intracellular hyperpolarized glucose or deoxyglucose are imaged and indicate the level of glucose uptake in the tissue.

[4] = value taken as a consideration in the simulation; cited from earlier work

O=CC[C@@H](O)[C@H](O)[C@H](O)CO [2-deoxy-D-glucose]
heart rate ([1]; 0.25, 0.5, and 1 g/Kg): no change
respiratory rate ([1]; 0.25, 0.5, and 1 g/Kg): no change
arterial blood pressure ([1]; 0.25, 0.5, and 1 g/Kg, not in a dose dependent manner): mean decrease
death ([1]; dose of 0.25, 0.5, and 1 g/Kg): No death

[2H][13C]1(O)O[13C@]([2H])([13C]([2H])([2H])O)[13C@@]([2H])(O)[13C@]([2H])(O)[13C@@]1([2H])O (stereo partly shown) [[U-^13C6, ^2H7]glucose]
mean difference in T1 between the two fields (longer at 7 T) ([2]; 400 mM, 7 T vs 11.8 T, P=6*10^-4, paired t-test): 2 s
T1 of glucose, individual values per carbon position and anomer ([2]; 7 T, 400 mM): 8 to 13 s
mean difference between the T1s of the two concentrations (longer at 400 mM) ([2]; 7 T, 400 mM vs 4.03 M, P=2*10^-6, paired t-test): 6.9 s
mean difference in T1 between the two concentrations (longer at 400 mM) ([2]; 11.8 T, 400 mM vs 4.03 M, P=4*10^-5, paired t-test): 4.5 s
T1 of glucose 13Cs shorter than in [2H7]glucose (natural abundance 13C) ([2]; 11.8 T, 400 mM, P=1.4x10^-3, paired t-test): 3.3 s
signal from the heart higher than signal in the kidneys ([3]; 20 s from bolus initiation): ~20%
signal from the heart higher than signal in the vasculature ([3]; 20 s from bolus initiation): about 40%
signal on carbon-13 images recorded in vivo ([3]; normal anesthetized rats, tail vein bolus of 12 s): high signal

CC(=O)C(=O)O [pyruvate, [1-^13C]pyruvate]
T1 of pyruvate [4]: 55 s
